The target in one assay is acetylcholinesterase (Homo sapiens, UniProt P22303). Kind of assay: biochemical.
The next assay deals with butyrylcholinesterase (Homo sapiens, UniProt P06276). Kind of assay: biochemical.
Where [1] appears, read: read-out: Acetylcholinesterase IC-50.
[2] abbreviates: read-out: Butyrylcholinesterase IC-50.

For 29 compounds, IC50 results are on record in patent publication US20070105837A1, “Novel derivatives of 4a,5,9,10,11,12-hexahydrobenzofuro[3a,3,2][2]-benzazepine, method for the production thereof and use thereof in the production of medicaments” (priority 2003, published 2007).

Structures can show the parent of a compound that is named as a salt. Where two headings read alike, the source gives them in different places.

Sequence of butyrylcholinesterase (P06276 29-602): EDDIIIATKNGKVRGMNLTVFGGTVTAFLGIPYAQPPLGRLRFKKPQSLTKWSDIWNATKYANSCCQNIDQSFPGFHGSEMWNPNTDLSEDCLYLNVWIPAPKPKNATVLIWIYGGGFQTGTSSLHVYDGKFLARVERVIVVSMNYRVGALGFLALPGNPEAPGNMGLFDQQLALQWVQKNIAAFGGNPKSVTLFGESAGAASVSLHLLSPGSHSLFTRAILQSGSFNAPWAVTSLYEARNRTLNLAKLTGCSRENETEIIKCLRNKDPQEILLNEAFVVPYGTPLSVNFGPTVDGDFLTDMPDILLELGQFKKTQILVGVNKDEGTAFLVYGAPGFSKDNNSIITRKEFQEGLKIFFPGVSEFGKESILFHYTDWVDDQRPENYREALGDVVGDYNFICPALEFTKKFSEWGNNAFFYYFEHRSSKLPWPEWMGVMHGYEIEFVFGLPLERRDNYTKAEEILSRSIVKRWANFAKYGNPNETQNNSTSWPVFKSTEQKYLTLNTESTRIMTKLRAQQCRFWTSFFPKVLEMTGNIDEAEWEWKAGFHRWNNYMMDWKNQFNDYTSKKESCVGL
Sequence of acetylcholinesterase (P22303 32-614, species assumed): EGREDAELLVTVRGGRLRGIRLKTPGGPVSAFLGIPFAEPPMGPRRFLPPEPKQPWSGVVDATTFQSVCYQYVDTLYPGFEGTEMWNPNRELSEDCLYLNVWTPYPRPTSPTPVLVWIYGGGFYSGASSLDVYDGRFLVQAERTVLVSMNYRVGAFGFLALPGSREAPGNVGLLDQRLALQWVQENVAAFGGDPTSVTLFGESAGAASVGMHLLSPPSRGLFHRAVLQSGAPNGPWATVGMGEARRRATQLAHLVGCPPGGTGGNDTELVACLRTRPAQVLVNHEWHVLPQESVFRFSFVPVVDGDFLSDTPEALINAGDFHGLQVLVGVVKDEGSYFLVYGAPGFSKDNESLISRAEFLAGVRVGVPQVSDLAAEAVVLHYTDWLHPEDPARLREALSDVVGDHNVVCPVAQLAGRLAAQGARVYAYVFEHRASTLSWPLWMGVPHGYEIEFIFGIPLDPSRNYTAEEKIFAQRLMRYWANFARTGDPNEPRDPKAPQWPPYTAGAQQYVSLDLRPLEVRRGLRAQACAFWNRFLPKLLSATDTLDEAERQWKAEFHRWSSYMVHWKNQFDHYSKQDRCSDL

Take `COc1cc(Br)c2c3c1OC1C[C@H](O)C=C[C@]31CCN(CCN1CCOCC1)C2` (single isomer, unassigned) [Example 58]: the IC50 on acetylcholinesterase (setting [1]) was more than 100 µM; at butyrylcholinesterase (setting [2]), 53 µM.

Turning to `COc1ccc2c3c1O[C@H]1C[C@@H](O)C=C[C@@]31CCN(C(N)=S)C2` (stereo in doubt) [Example 30, (4aS,6R,8aS)-6-hydroxy-3-methoxy-5,6,9,10-tetrahydro-4aH-[1]benzofuro[3a,3,2-ef][2]benzazepine-11(12H)-carbothioamide], the IC50 on acetylcholinesterase (setting [1]) and at butyrylcholinesterase (setting [2]) was more than 100 µM each time. As to `COc1cc(Br)c2c3c1O[C@H]1C[C@H](O)C=C[C@@]31CCNC2` [Example 1, (4aS,6S,8S)-1-bromo-4a,5,9,10,11,12-hexahydro-3-methoxy-6H-[1]benzofuro[3a,3,2-ef][2]benzazepin-6-ol.], the IC50 against acetylcholinesterase and on butyrylcholinesterase was more than 100 µM each time.

On to `COc1cc(Br)c2c3c1O[C@@H]1C[C@@H](O)C=C[C@]31CCNC2` [Example 3, (4aR,6R,8R)-1-bromo-4a,5,9,10,11,12-hexahydro-3-methoxy-6H-[1]benzofuro[3a,3,2-ef][2]benzazepin-6-ol.], for which the IC50 on acetylcholinesterase and at butyrylcholinesterase was more than 100 µM throughout.

`CNC(=S)N1CC[C@]23C=C[C@H](O)C[C@H]2Oc2c(OC)cc(Br)c(c23)C1` [Example 4, (4aR,6R,8aR)-1-brorno-4a,5,9,10-tetrahydro-6-hydroxy-3-methoxy-6H-[1]benzofuro-[3a,3,2-ef][2]benzazepine-11(12H)-thiocarbonic acid methylamide]: the IC50 at acetylcholinesterase (setting [1]) and on butyrylcholinesterase (setting [2]) was more than 100 µM in each case. In the case of `COc1cc(Br)c2c3c1O[C@@H]1C[C@H](O)C=C[C@]31CCN(Cc1ccccc1)C2` [Example 6, (4aR,6S,8aR)-11-benzyl-1-bromo-4a,5,9,10,11,12-hexahydro-3-methoxy-6H-[1]benzofuro[3a,3,2-ef][2]benzazepin-6-ol], the figures for the IC50 at acetylcholinesterase (setting [1]) and on butyrylcholinesterase (setting [2]) were more than 100 µM and 19 µM, respectively. With `COc1cc(Br)c2c3c1O[C@@H]1C[C@H](O)C=C[C@]31CCN(CCCN1CCN(C)CC1)C2` [Example 8, (4aR,6R,8aR)-11-(3-(4-methylpiperazine)-1-yl-propyl)-3-methoxy-5,6,9,10,11,12-hexahydro-4aH-[1]benzofuro[3a,3,2-ef][2]benzazepin-6-oI, Trihydrochloride], the IC50 at acetylcholinesterase (setting [1]) is more than 100 µM.

Turning to `COC(=O)CCC(=O)N1CC[C@]23C=C[C@@H](O)C[C@H]2Oc2c(OC)cc(Br)c(c23)C1` [Example 9, Methyl-4-((4aR,6S,8aR)-1-bromo-4a,5,9,10,11,12-hexahydro-6-hydroxy-3-methoxy-6H-benzofuro[3a,3,2-ef][2]benzazepine-11-yl)gamma-oxobutyrate], the IC50 at acetylcholinesterase (setting [1]) and at butyrylcholinesterase (setting [2]) was more than 100 µM in each case. Turning to `COc1cc(Br)c2c3c1O[C@@H]1C[C@H](O)C=C[C@]31CCN(CCCN)C2` [Example 10, (4aR,6S,8aR)-11-(4-aminopropyl)-3-methoxy-5,6,9,10,11,12-hexahydro-4aH-[1]benzofuro[3a,3,2-et][2]benzazepin-6-ol, methane sulfonate], the IC50 on acetylcholinesterase (setting [1]) and at butyrylcholinesterase (setting [2]) was more than 100 µM throughout. For the compound `CNC(=S)N1CC[C@]23C=C[C@@H](O)C[C@H]2Oc2c(OC)cc(Br)c(c23)C1` [Example 11, (4aR,6S,8aR)-1-bromo-4a,5,9,10-tetrahydro-6-hydroxy-3-methoxy-6H-[1]benzofuro-[3a,3,2-et][2]benzazepine-11(12H)-thiocarbonic acid methylamide], the IC50 on acetylcholinesterase (setting [1]) and at butyrylcholinesterase (setting [2]) was more than 100 µM throughout.

With `COc1ccc2c3c1O[C@H]1C[C@H](O)C=C[C@@]31CCN(C(=O)NC(C)C)C2` [Example 14], the IC50 at acetylcholinesterase (setting [1]) and on butyrylcholinesterase (setting [2]) was more than 100 µM throughout. Turning to `COc1ccc2c3c1O[C@H]1C[C@H](O)C=C[C@@]31CCN(c1ncccn1)C2` [Example 16, (4aS,6S,8aS)-4a,5,9,10,11,12-hexahydro-3-methoxy-11-(2-pyrimidinyl)-6H-[1]benzofuro[3a,3,2-ef][2]benzazepin-6-ol], the IC50 at acetylcholinesterase (setting [1]) and on butyrylcholinesterase (setting [2]) was more than 100 µM in each case. As for `C#CCN1CC[C@@]23C=C[C@@H](O)C[C@@H]2Oc2c(OC)ccc(c23)C1` [Example 18, (4aS,6S,8aS)-4a,5,9,10,11,12-hexahydro-3-methoxy-11-propargyl-6H-[1]benzofuro[3a,3,2-ef][2]benzazepin-6-ol], the IC50 on acetylcholinesterase (setting [1]) and at butyrylcholinesterase (setting [2]) was more than 100 µM in each case. Regarding `C=CCNC(=S)N1CC[C@@]23C=C[C@@H](O)C[C@@H]2Oc2c(OC)ccc(c23)C1` [Example 20, (4aS,6S,8aS)-6-hydroxy-3-methoxy-4a,5,9,10-tetrahydro-6H-[1]benzofuro[3a,3,2-ef][2]benzazepine-11(12H)-thiocarbonic acid allylamide], the IC50 on acetylcholinesterase (setting [1]) and at butyrylcholinesterase (setting [2]) was more than 100 µM each time. Consider `COc1ccc2c3c1O[C@H]1C[C@H](O)C=C[C@@]31CCN(C(N)=O)C2` [Example 21, (4aS,6S,8aS)-4a,5,9,10-tetrahydro-6-hydroxy-3-methoxy-6H-[1]benzofuro[3a,3,2-ef][2]benzazepine-11(12H)-carboxamide], for which the IC50 on acetylcholinesterase (setting [1]) and on butyrylcholinesterase (setting [2]) was more than 100 µM throughout. Consider `COc1ccc2c3c1O[C@H]1C[C@@H](O)C=C[C@@]31CCN(CCc1ccccc1Nc1c(Cl)cccc1Cl)C2` [Example 40, 1-((4aS,6R,8aS)-6-hydroxy-3-methoxy-5,6,9,10-tetrahydro-4aH-[1]benzofuro[3a,3,2-ef][2]benzazepine-11(12H)-yl)-2-[2-(2,6-dichloranilino)]-phenylethane], for which the IC50 on butyrylcholinesterase (setting [2]) was 1.3 µM. Consider `COc1ccc2c3c1O[C@H]1C[C@@H](O)C=C[C@@]31CCN(C(=O)c1ccc(Br)cc1)C2` [Example 41, (4aS,6R,8aS)-4a,5,9,10,11,12-hexahydro-3-methoxy-11-(4-bromo-benzoyl)-6H-[1]benzofuro[3a,3,2-ef][2]benzazepin-6-ol], for which, at butyrylcholinesterase (setting [2]), the IC50 came to 30 µM. Compound `COc1ccc2c3c1O[C@H]1C[C@@H](O)C=C[C@@]31CCN(Cc1ccc(Br)cc1)C2` [Example 43, (4aS,6R,8aS)-11-(4-brombenzyl)-4a,5,9,10,11,12-hexahydro-3-methoxy-6H-[1]benzofuro[3a,3,2-ef][2]benzazepin-6-ol] returned an IC50 against butyrylcholinesterase of 0.0006 µM. Regarding `CCOC(=O)CN1CC[C@@]23C=C[C@H](O)C[C@@H]2Oc2c(OC)ccc(c23)C1` [Example 44, Ethyl-2-((4aS,6R,8aS)-6-hydroxy-3-methoxy-5,6,9,10-tetrahydro-4aH-[1]benzofuro[3a,3,2-ef][2]benzazepine-11(12H)-yl)acetate], the IC50 on butyrylcholinesterase (setting [2]) was 42 µM. As for `C=C(C)CN1CC[C@@]23C=C[C@H](O)C[C@@H]2Oc2c(OC)ccc(c23)C1` [Example 46, (4aS,6R,8aS)-4a,5,9,10,11,12-hexahydro-3-methoxy-11-(2-methyl-prop-2-enyl)-6H-[1]benzofuro[3a,3,2-ef][2]benzazepin-6-ol, hydrochloride], the IC50 on butyrylcholinesterase worked out at 0.34 µM. For `CCOC(=O)CCN1CC[C@@]23C=C[C@H](O)C[C@@H]2Oc2c(OC)ccc(c23)C1` [Example 47, Ethyl-3-((4aS,6R,8aS)-6-hydroxy-3-methoxy-5,6,9,10-tetrahydro-4aH-[1]benzofuro[3a,3,2-ef][2]benzazepine-11(12H)-yl)propanoate, hydrochloride], on butyrylcholinesterase (setting [2]), the IC50 amounted to 51 µM. For the compound `COc1ccc2c3c1O[C@H]1C[C@@H](O)C=C[C@@]31CCN(C(=O)CN1CCOCC1)C2` [Example 48, 1-[(4aS,6R,8aS)-6-hydroxy-3-methoxy-5,6,9,10-tetrahydro-4aH-[1]benzofuro[3a,3,2-ef][2]benzazepine-11(12H)-yl]-2-(4-morpholinyl) ethan-1-one], the IC50 at butyrylcholinesterase (setting [2]) was 3.8 µM. In the case of `CCN(CC)CC(=O)N1CC[C@@]23C=C[C@H](O)C[C@@H]2Oc2c(OC)ccc(c23)C1` [Example 49, 1-((4aS,6R,8aS)-6-hydroxy-3-methoxy-5,6,9,10-tetrahydro-4aH-[1]benzofuro[3a,3,2-ef][2]benzazepine-11(12H)-yl]-2-(diethylamino) ethan-1-one], at butyrylcholinesterase (setting [2]), the IC50 was determined as 40 µM. With `COc1ccc2c3c1O[C@H]1C[C@@H](O)C=C[C@@]31CCN(CCCN(C)C)C2` [Example 52, (4aS,6R,8aS)-11-((3-dimethylamino)propyl)-3-methoxy-5,6,9,10,11,12-hexahydro-4aH-[1]benzofuro[3a,3,2-ef][2]benzazepin-6-ol], the IC50 at butyrylcholinesterase (setting [2]) turned out to be 2.1 µM. In the case of `COc1ccc2c3c1O[C@H]1C[C@@H](O)C=C[C@@]31CCN(C(=O)NC1CCCCC1)C2` [Example 53, (4aS,6R,8aS)-N11-cydohexyl-6-hydroxy-3-methoxy-5,6,9,10-tetrahydro-4aH-[1]benzofuro[3a, 3,2-ef][2]benzazepine-11(12H)-carbonic acid isopropylamide], the IC50 on butyrylcholinesterase (setting [2]) was more than 100 µM. For the compound `COc1ccc2c3c1O[C@H]1C[C@@H](O)C=C[C@@]31CCN(C(=O)CCl)C2` [Example 54, 1-[(4aS,6R,8aS)-6-hydroxy-3-methoxy-5,6,9,10-tetrahydro-4aH-[1]benzofuro[3a,3,2-ef][2]benzazepine-11(12H)-yl]-2-chloroethan-1-one], at butyrylcholinesterase (setting [2]), the IC50 was more than 100 µM. Consider `COc1ccc2c3c1O[C@@H]1C[C@H](O)C=C[C@]31CC[N+](C)=C2` [Example 55, (4aR,6S,8aR)-6-hydroxy-3-methoxy-11-methyl-4a,5,9,10-tetrnhydro-6H-benzofuro[3a,3,2-eq][2]benzazepinium bromide], for which, at butyrylcholinesterase, the IC50 is more than 100 µM.

At butyrylcholinesterase, `COc1ccc2c3c1O[C@@H]1C[C@@H](O)C=C[C@]31CC[N+](C)=C2` [Example 56, (4aR,6R,8aR)-6-hydroxy-3-methoxy-11-methyl-4a,5,9,10-tetrahydro-6H-benzofuro[3a,3,2-ef][2]benzazepineium bromide] displayed an IC50 of more than 100 µM. With “(4aS,6S,8aS)-1-bromo-6-hydroxy-3-methoxy-4a,5, 9,10-tetrahydro-6N-[1]benzofuro[3a,3,2-et][2]benzazepine-11(12H)-thiocarbonic acid allylamide [Example 2]”, the IC50 at butyrylcholinesterase (concentration at which 50% inhibition occurs, read-out: Butyrylcholinesterase IC-50) is more than 100 µM.
